How the values were obtained:
[1] = tested on: 22RV1 prostate carcinoma cells; assay: dose response assay, 22RV1 cells; assay type: cell-based; conditions: Homo sapiens
Experimental: The penultimate precursor to compound ON 14013100 (an NHS-activated prodrug of ON 013100)—ON 13013100—lacks the activating group for conjugation to mAbs, and served as a suitable candidate to test for plasma stability. […] See, FIG. 4 which illustrates a dose response assay comparing ON 013100 to its linked version, ON 013013100. 22RV1 cells were treated with various concentrations of ON 013100 and its linked version […]. […] Current synthetic work is now focusing towards optimizing a variety of parameters (i.e. spacer length and type, mAb conjugation method, etc.) associated with the current result. Future studies will involve the synthesis and evaluation of a diverse collection of ON 01500 and ON 013100 prodrugs with the ultimate goal of improving pharmacokinetics, blood compartment stability, and intratumoral accumulation and drug release. Infra; see, Examples.

[2] = tested on: multiple myeloma cell lines; assay: growth inhibition, multiple myeloma cell lines (panel statement); assay type: cell-based, Human; conditions: statement in words
Description: Pellat-Deceunynk, C., et al., Human Myeloma Cell Lines As A Tool For Studying The Biology Of Multiple Myeloma: A Reappraisal 18 Years After, Blood 86(10):4001-2 (1995); Gooding, R. P., et al., Phenotypic And Molecular Analysis Of Six Human Cell Lines Derived From Patients With Plasma Cell Dyscrasia, British Journal of Haematology 106:669-688 (1999).

[3] = tested on: prostate cancer cells (DU145); assay: FACS cell cycle and apoptosis, DU145; assay type: cell-based; conditions: 20 nM, treated over 72 hours
Experimental: (§1) Treatment of cancer cells with either of these two compounds will result in a mitotic arrest followed by the onset of apoptosis in a dose dependent manner. FACS analysis of normal and tumor cells treated with ON 01500 and ON 013100. A. Cells treated for 24 hrs with ON 01500. B. Cells treated with ON 013100 (20 nM) and harvested at various time points thereafter. FIG. 6. […] ON 013100 treatment of normal human umbilical vein endothelial cells (HLVECs) results in a similar cell cycle distribution. FIG. 6.B illustrates cells that have been treated over 72 hours. […] This characteristic should greatly increase the “therapeutic window” of the resulting immunoconjugates since there are now two layers of selectivity. The first being the selective binding and release of the cytotoxic compound only in cells expressing the tumor specific antigen, and the innate selectivity of the compounds themselves. This will provide additional protection of the patient if non-selective binding or release occurs.

[4] = tested on: normal human umbilical vein endothelial cells; assay: FACS cell cycle, HUVEC; assay type: cell-based; conditions: HUVECs, 20 nM, treated over 72 hours
Experimental: as §1

## COc1cc(OC)c(/C=C/S(=O)(=O)Cc2ccc(OC)c(O)c2)c(OC)c1 [ON 013100, (E)-5-((2,4,6-trimethoxystyrylsulfonyl)methyl)-2-methoxyphenol]
[1]
  IC50: 10 nM
[2]
  IC50 values, multiple myeloma cell lines: nearing picomolar concentrations
[3]
  cell cycle distribution and apoptosis (FACS): G2/M arrest followed by apoptosis in a time dependent manner
[4]
  cell cycle distribution (FACS): arrest in the G1 stage of the cell cycle
